Assays:
LXRβ [1] = target: T1, LXRβ (Homo sapiens, UniProt P55055); experiment: TR-FRET coactivator assay (positive control, parent agonist); assay type: binding
T1 construct: gene NR1H2
T1 sequence (P55055 1-460): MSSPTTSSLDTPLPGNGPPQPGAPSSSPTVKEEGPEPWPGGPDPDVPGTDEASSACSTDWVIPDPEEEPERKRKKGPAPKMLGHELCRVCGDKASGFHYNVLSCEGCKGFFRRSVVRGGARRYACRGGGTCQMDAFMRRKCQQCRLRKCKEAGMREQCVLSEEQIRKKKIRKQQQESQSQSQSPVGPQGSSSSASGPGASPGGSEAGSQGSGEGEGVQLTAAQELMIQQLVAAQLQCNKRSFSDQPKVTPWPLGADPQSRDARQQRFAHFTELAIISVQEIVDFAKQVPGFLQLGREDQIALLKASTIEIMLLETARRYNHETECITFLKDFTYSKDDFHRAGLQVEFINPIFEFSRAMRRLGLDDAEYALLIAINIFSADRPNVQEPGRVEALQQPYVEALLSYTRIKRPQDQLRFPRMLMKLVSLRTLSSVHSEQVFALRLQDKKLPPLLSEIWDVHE

LXRβ [2] = target: T1, LXRβ; experiment: TR-FRET coactivator assay; assay type: binding

Row | SMILES | EC50 (LXRβ [1]) | EC50 (LXRβ [2])
1 | O=C(O)Cc1cccc(OCCCN(Cc2cccc(C(F)(F)F)c2Cl)CC(c2ccccc2)c2ccccc2)c1 [GW3965] | 20 ± 7.2 nM | –
2 | Cc1ncsc1-c1ccc(CNC(=O)[C@@H]2C[C@@H](O)CN2C(=O)[C@@H](NC(=O)COCCOCCOCCOCCOCCNC(=O)Cc2cccc(OCCCN(Cc3cccc(C(F)(F)F)c3Cl)CC(c3ccccc3)c3ccccc3)c2)C(C)(C)C)cc1 [compound 3, GW3965-PEG5-VH032] | – | 31 ± 4.4 nM

Source: PMC8187946, “Development of Agonist-Based PROTACs Targeting Liver X Receptor” (Frontiers in Chemistry, 2021)
